Experimental findings from ChEMBL document CHEMBL1123054, “Synthesis and dopamine autoreceptor activity of a 5-(methylmercapto)methyl-substituted derivative of (+/-)-3-PPP (3-(3-hydroxyphenyl)-1-n-propylpiperidine)” (J Med Chem, 1985) are described below.

The test system of experiment [1] is Mus musculus. Briefly: Dopa accumulation induced by GBL was measured in mouse after subcutaneous administration of 32 umol/kg of compound. The class given is functional.
The species named for experiment [2] is Rattus norvegicus. Put plainly: In vitro inhibitory activity was determined against dopamine synthesis in rat striatal synaptosomes. To be noted: Brain.
Experiment [3] has as its system Mus musculus. Briefly: Dose required to produce convulsions in mouse was determined after subcutaneously administration. The class given is functional.
The species named for experiment [4] is Rattus norvegicus. Put plainly: In vitro inhibitory activity was determined against dopamine synthesis in rat striatal synaptosomes. To be noted: Brain. This is another data set of the same source.

Molecule `CCCN1CCCC(c2cccc(O)c2)C1` (stereo not given) registered an Accumulation in experiment [1] of 60%. Besides, the midpoint of inhibition in experiment [2], the IC50, lay at 55 µM.
For the molecule `CCCN1C[C@H](CSC)C[C@H](c2cccc(O)c2)C1`, the Dose in experiment [3] stood at 100 µM/kg. Besides, the Accumulation in experiment [1] was 89%. The IC50 in experiment [4] came to 45 µM.

As a reminder, the IC50 is the concentration needed to halve the response being measured. Read a low IC50 as higher potency.
